Reference: patent US11661410B2 (GLOBAL BLOOD THERAPEUTICS, INC., priority 2017, dated 2023)
Counter-ions that a name gives are not always drawn.

The compounds below were run against G9a (Homo sapiens (Human), UniProt Q96KQ7) (assay: G9a AlphaLISA enzymatic activity assay). Conditions: not given.
Assay type: biochemical

Sequence of G9a (Q96KQ7 whole entry): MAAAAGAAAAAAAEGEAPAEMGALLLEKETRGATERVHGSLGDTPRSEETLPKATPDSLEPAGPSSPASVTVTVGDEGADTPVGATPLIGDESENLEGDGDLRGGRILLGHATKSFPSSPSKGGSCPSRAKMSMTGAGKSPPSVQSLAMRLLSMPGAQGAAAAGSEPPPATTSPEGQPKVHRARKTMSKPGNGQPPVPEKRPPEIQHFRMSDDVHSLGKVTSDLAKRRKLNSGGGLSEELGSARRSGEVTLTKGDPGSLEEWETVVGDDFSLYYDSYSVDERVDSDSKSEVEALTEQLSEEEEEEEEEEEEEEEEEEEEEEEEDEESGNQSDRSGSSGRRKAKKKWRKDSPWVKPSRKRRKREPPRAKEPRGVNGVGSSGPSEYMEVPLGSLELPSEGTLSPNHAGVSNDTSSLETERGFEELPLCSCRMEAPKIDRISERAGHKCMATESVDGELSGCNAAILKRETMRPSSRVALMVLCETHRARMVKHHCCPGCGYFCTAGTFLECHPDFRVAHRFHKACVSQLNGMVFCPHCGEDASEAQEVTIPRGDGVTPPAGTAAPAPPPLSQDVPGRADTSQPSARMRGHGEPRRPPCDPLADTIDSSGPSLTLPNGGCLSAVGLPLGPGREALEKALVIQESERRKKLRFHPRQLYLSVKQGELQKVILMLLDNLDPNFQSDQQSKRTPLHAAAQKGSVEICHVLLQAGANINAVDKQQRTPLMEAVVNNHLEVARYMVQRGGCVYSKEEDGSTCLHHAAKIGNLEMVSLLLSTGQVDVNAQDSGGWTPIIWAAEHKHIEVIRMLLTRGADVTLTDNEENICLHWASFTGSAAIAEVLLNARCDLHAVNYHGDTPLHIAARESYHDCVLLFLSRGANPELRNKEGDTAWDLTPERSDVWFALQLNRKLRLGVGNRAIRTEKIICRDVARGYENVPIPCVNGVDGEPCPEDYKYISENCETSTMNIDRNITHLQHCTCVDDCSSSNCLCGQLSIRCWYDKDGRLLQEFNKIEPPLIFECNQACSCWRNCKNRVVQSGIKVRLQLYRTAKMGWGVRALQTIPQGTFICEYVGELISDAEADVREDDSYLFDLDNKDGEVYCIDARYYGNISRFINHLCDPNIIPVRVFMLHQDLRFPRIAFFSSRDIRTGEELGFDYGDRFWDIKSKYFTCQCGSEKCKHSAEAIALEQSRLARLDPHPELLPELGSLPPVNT

In order of rising pIC50:
1. COc1cc2nc3c(c(NCc4cn(C)cn4)c2cc1OC)CCC3 [Example 41]  5.32
2. COc1cc2nc3c(c(N[C@@H]4CCCN(C)C4)c2cc1OC)CCC3  5.48
3. COc1cc2nc3c(c(NC4CCN(c5ccccc5Cl)CC4)c2cc1OC)CCC3  6.72
4. COc1cc2nc3ccccc3c(NC3CCN(C(C)C)CC3)c2cc1OC [Example 46]  6.75
5. COc1cc2nc3c(c(N[C@@H]4CCCNCC4)c2nc1OC)CCC3 [Example 163, (4R)-N-[2,3-dimethoxy-6H,7H,8H-cyclopenta[b]1,5-naphthyridin-9-yl] azepan-4-amine]  6.8
6. COc1cc2nc3ccccc3c(NC3CCN(C(C)C)CC3)c2cc1OC [Example 47]  7.1

Same assay, conditions: G9a AlphaLISA; negative log of the IC50 value in molar

In order of rising pIC50:
1. CCCOc1cc2nc3c(c(NC)c2cc1OC)CCC3 [Example 2, bis(formic acid)]  5
2. COc1cc2c(NC(C)C)c3c(nc2cc1OCCOCCO)CCC3 [Example 6]  5
3. COc1cc2nc3c(c(NC4CC5(CNC5)C4)c2cc1OC)CCC3 [Example 19, bis(formic acid)]  5
4. COc1cc2nc3c(c(NCC4CC(N(C)C)C4)c2cc1OC)CCC3 (centres unmarked)  5.24
5. COc1cc2c(NC(C)C)c3c(nc2cc1OCCCCCO)CCC3 [Example 21]  5.3
6. COc1cc2nc3c(c(NC4CCN(c5cccc(F)c5F)CC4)c2cc1OC)CCC3 [Example 59, 1-(2,3-difluorophenyl)-N-{6,7-dimethoxy-1H,2H,3H-cyclopenta[b]quinolin-9-yl}piperidin-4-amine]  5.3
7. COc1cc2c(NC3CCN(C(C)C)CC3)c3c(nc2cc1OC(F)F)CCC3 [Example 36]  5.42
8. COc1cc2nc3c(c(NC4CCN(C(CO)CCl)CC4)c2cc1OC)CCC3 (centres unmarked) [Example 44]  5.49
9. COc1cc2nc3c(c(NC4CN(C(=O)OC(C)(C)C)C4)c2cc1OC)CCC3 [Example 12]  5.5
10. COc1cc2nc3c(c(NC4CC5(C4)CN(C(=O)OC(C)(C)C)C5)c2cc1OC)CCC3 [Example 17]  5.5
11. CNc1c2c(nc3cc(OCCCOC)c(OC)cc13)CCC2 [Example 3]  5.53
12. COc1cc2nc3c(c(NC4CCN(c5cccc(Cl)c5)CC4)c2cc1OC)CCC3 [Example 50]  5.53
13. COc1cc2nc3c(c(NC4CCN(c5ccccc5)CC4)c2cc1OC)CCC3 [Example 14]  5.55
14. CCOCCOc1cc2nc3c(c(NC)c2cc1OC)CCC3 [Example 4, bis(formic acid)]  5.57
15. COc1cc2nc3c(c(NC4CCN(c5ccccc5OC)CC4)c2cc1OC)CCC3 [Example 49]  5.63
16. COc1cc2nc3c(c(NC4CCN(C(C)C)CC4)c2cc1OC)CCCCC3 [Example 33]  5.78
17. COc1cc2nc3c(c(NC4CCN(c5cccc(F)c5)CC4)c2cc1OC)CCC3 [Example 25]  5.87
18. COc1cc2nc3c(c(NC(C)C)c2cc1OC)CCC3 [Example 1, 6,7-dimethoxy-N-(propan-2-yl)-1H,2H,3H-cyclopenta[b]quinolin-9-amine formate]  5.97
19. COc1cc2nc3c(c(NC4CCN(c5ccncc5F)CC4)c2cc1OC)CCC3 [Example 55, N-{6,7-dimethoxy-1H,2H,3H-cyclopenta[b]quinolin-9-yl}-1-(3-fluoropyridin-4-yl)piperidin-4-amine]  6.05
20. COc1cc2nc3c(c(NC4CCN(c5ccccn5)CC4)c2cc1OC)CCC3 [Example 24]  6.11
21. COc1cc2nc3c(c(NC4CCN(C(N)=O)CC4)c2cc1OC)CCC3 [Example 58, 4-({6,7-dimethoxy-1H,2H,3H-cyclopenta[b]quinolin-9-yl}amino)piperidine-1-carboxamide]  6.12
22. COc1cc2nc3c(c(N[C@@H]4CCCN(C)C4)c2nc1OC)CCC3 [Example 164, (3R)-N-[2,3-dimethoxy-6H,7H,8H-cyclopenta[b]1,5-naphthyridin-9-yl]-1-methylpiperidin-3-amine]  6.2
23. COc1cc2nc3c(c(NC4CCN(c5ccncc5)CC4)c2cc1OC)CCC3 [Example 22]  6.21
24. COc1cc2c(NC(C)C)c3c(nc2cc1OCCCC(C)O)CCC3 (centres unmarked) [Example 31]  6.23
25. COc1cc2nc3c(c(NC4CCN(C(=O)CO)CC4)c2cc1OC)CCC3 [Example 54, 1-[4-({6,7-dimethoxy-1H,2H,3H-cyclopenta[b]quinolin-9-yl}amino)piperidin-1-yl]-2-hydroxyethan-1-one]  6.24
26. COc1cc2nc3c(c(NC4CCN(C(=O)COCc5ccccc5)CC4)c2cc1OC)CCC3 [Example 52]  6.39
27. COc1cc2c(NC3CCN(C(C)C)CC3)c3c(nc2cc1OCCCO)CCC3 [Example 51]  6.45
28. COc1cc2c(NC3CCN(C(C)C)CC3)c3c(nc2cc1OCCO)CCC3 [Example 53, 2-[(7-methoxy-9-{[1-(propan-2-yl)piperidin-4-yl]amino}-1H,2H,3H-cyclopenta[b]quinolin-6-yl)oxy]ethan-1-ol]  6.54
29. COc1cc2nc3c(c(N[C@H]4CCCNC4)c2cc1OC)CCC3 [Example 28]  6.66
30. COCCN1CCC(Nc2c3c(nc4cc(OC)c(OC)cc24)CCC3)CC1 [Example 61, N-{6,7-dimethoxy-1H,2H,3H-cyclopenta[b]quinolin-9-yl}-1-(2-methoxyethyl)piperidin-4-amine]  6.7
31. COc1cc2c(NC3CCN(C(C)C)CC3)c3c(nc2cc1C1CC1)CCC3 [Example 57, N-{6-cyclopropyl-7-methoxy-1H,2H,3H-cyclopenta[b]quinolin-9-yl}-1-(propan-2-yl)piperidin-4-amine]  6.72
32. COc1cc2nc3c(c(NC4CCN(C(C)C)CC4)c2nc1OC)CCC3 [Example 134, N-[2,3-dimethoxy-6H,7H,8H-cyclopenta[b]1,5-naphthyridin-9-yl]-1-(propan-2-yl)piperidin-4-amine]  6.8
33. COc1cc2nc3c(c(N[C@@H]4CCCNC4)c2cc1OC)CCC3 [Example 29]  6.81
34. COc1cc2nc3c(c(NC4CCN(c5ccc(F)cc5)CC4)c2cc1OC)CCC3  6.85
35. COc1cc2nc3c(c(NC[C@@H]4CCCNC4)c2cc1OC)CCC3 [Example 68, 6,7-dimethoxy-N-{[(3R)-piperidin-3-yl]methyl}-1H,2H,3H-cyclopenta[b]quinolin-9-amine]  6.9
36. COc1cc2nc3c(c(NCC4CCNCC4)c2cc1OC)CCC3 [Example 67, 6,7-dimethoxy-N-[(piperidin-4-yl)methyl]-1H,2H,3H-cyclopenta[b]quinolin-9-amine]  7
37. COc1cc2nc3c(c(N[C@@H]4CCCN(C)CC4)c2nc1OC)CCC3 [Example 165, (4R)-N-{2,3-dimethoxy-6H,7H,8H-cyclopenta[b]1,5-naphthyridin-9-yl}-1-methylazepan-4-amine]  7
38. COc1cc2nc3c(c(NC4CCN(c5cccnc5)CC4)c2cc1OC)CCC3 [Example 23]  7.05
39. COc1cc2nc3c(c(NC4CCN(Cc5ccccc5)CC4)c2cc1OC)CCC3 [Example 45]  7.07
40. COc1cc2nc3c(c(NC[C@H]4CCCNC4)c2cc1OC)CCC3 [Example 69]  7.1
41. COc1cc2nc3c(c(N[C@@H]4CCCNC4)c2nc1OC)CCC3 [Example 149, (3R)-N-[2,3-dimethoxy-6H,7H, 8Hcyclopenta[b]1,5naphthyridin-9-yl]piperidin-3-amine]  7.2
42. COc1cc2nc3c(c(NC4CNC4)c2cc1OC)CCC3 [Example 13]  7.22
43. COc1cc2nc3c(c(NC4CCN(C5CCOCC5)CC4)c2cc1OC)CCC3 [Example 16, hydrochloride]  7.27
44. COc1cc2nc3c(c(NCC4CCCN4)c2cc1OC)CCC3 (centres unmarked) [Example 66, 6,7-dimethoxy-N-[(pyrrolidin-2-yl)methyl]-1H,2H,3H-cyclopenta[b]quinolin-9-amine]  7.3
45. COc1cc2nc3c(c(NC4CCN(C)CC4)c2cc1OC)CCC3 [Example 9]  7.31
46. COc1cc2nc3c(c(NC4CCN(C5CCCC5)CC4)c2cc1OC)CCC3 [Example 60, 1-cyclopentyl-N-{6,7-dimethoxy-1H,2H,3H-cyclopenta[b]quinolin-9-yl}piperidin-4-amine]  7.4
47. COc1cc2nc3c(c(NCC4CCNC4)c2cc1OC)CCC3 (centres unmarked) [Example 65, 6,7-dimethoxy-N-[(pyrrolidin-3-yl)methyl]-1H,2H,3H-cyclopenta[b]quinolin-9-amine]  7.4
48. COc1cc2nc3c(c(NCC4CN(C)C4)c2cc1OC)CCC3 [Example 11]  7.49
49. COc1cc2nc3c(c(N[C@@H]4CCCNCC4)c2cc1OC)CCC3 [Example 62, (4R)-N-{6,7-dimethoxy-1H,2H,3H-cyclopenta[b]quinolin-9-yl}azepan-4-amine]  7.5
50. COc1cc2nc3c(c(N[C@@H]4CCCN(C)CC4)c2cc1OC)CCC3 [Example 63, (4R)-N-{6,7-dimethoxy-1H,2H,3H-cyclopenta[b]quinolin-9-yl}-1-methylazepan-4-amine]  7.5
51. CC(C)N1CCC(Nc2c3c(nc4cc5c(cc24)OCO5)CCC3)CC1 [Example 20]  7.53
52. COc1cc2nc3c(c(NC4CCN(c5ccccc5F)CC4)c2cc1OC)CCC3 [Example 26]  7.53
53. CCN1CCC[C@@H](Nc2c3c(nc4cc(OC)c(OC)cc24)CCC3)CC1 [Example 64, (4R)-N-{6,7-dimethoxy-1H,2H,3H-cyclopenta[b]quinolin-9-yl}-1-ethylazepan-4-amine]  7.6
54. COc1cc2nc3c(c(NC4CCCNC4)c2cc1OC)CCC3 (centres unmarked) [Example 10]  7.66
55. CCN1CCC(Nc2c3c(nc4cc(OC)c(OC)cc24)CCC3)CC1 [Example 15]  7.67
56. COc1cc2nc3c(c(N[C@H]4CCCN(C)C4)c2cc1OC)CCC3 [Example 30]  7.83
57. COc1cc2c(NC3CCN(C(C)C)CC3)c3c(nc2cc1O)CCC3 [Example 35]  7.94
58. COc1cc2nc3c(c(N[C@H]4CNC[C@@H](C)C4)c2cc1OC)CCC3 [Example 286, (3R,5S)-N-{6,7-dimethoxy-1H,2H,3H-cyclopenta[b]quinolin-9-yl}-5-methylpiperidin-3-amine]  8
59. CCN1CC(Nc2c3c(nc4cc(OC)c(OC)cc24)CCC3)C1 [Example 27]  8.08
